Results as given in PMC7690585, “Target-Mediated Brain Tissue Binding for Small Molecule Inhibitors of Heat Shock Protein 90” (Pharmaceutics, 2020).

Experiment: in vitro
Conditions: NMRI, mouse, brain homogenate, pH 7
Procedure: Brain tissue from Naval Medical Research Institute (NMRI) mice was homogenized in phosphate buffer (1 g: 2 mL) and stored in −80 °C freezer before use. For dialysis experiment, 150 µL of brain homogenate (fresh blood collected on EDTA-K2 and diluted 1:1 with phosphate buffer or plasma) was added to one compartment of a dialysis plate (assembled according to the manufacturer instructions with a dialysis membrane between the 2 compartments) against 150 µL of phosphate buffer pH 7. The test compound was added to the compartment with brain homogenate (or plasma) and the plate was incubated in an incubator with a 5% CO2 and rotating at 150 rpm for 5 h. At the end of the incubation time, aliquots of 90 µL of samples were removed from both the buffer and the brain homogenate compartments. The aliquots were added to 120 µL of acetonitrile containing the internal standard. The mixture was centrifuged at 4000 rpm for 10 min and the supernatant was collected for LC-MS/MS analysis. All equilibrium dialysis studies were performed in triplicate at each tested concentration.
Binding to brain tissues was assessed using 6 different concentrations of test items ranging from 0.3 to 100 µM. Warfarin was used as control.
Determination of fractions unbound was conducted according to the equations below:fu = Creceiver (CT0 − Creceiver)(1)
In brain homogenate (blood or plasma):(2) % Undiluted fu=100 ×1/D/1/fu−1+1/D (3) % Recovery=100 × Creceiver +Cdonor/CT0 where
Dilution factor (D) is determined as 3 in this assay.

CC(=O)CC(c1ccccc1)c1c(O)c2ccccc2oc1=O (stereo not shown) [Warfarin]
Ratio (30 µM/1 µM) Unbound Fractions in Brain (5 h): 1.5 | fraction unbound at 5 h, 0.3 µM: 0.086 ± 0.002 | fraction unbound at 5 h, 1 µM: 0.112 ± 0.001 | fraction unbound at 5 h, 3 µM: 0.143 ± 0.005 | fraction unbound at 5 h, 10 µM: 0.143 ± 0.006 | fraction unbound at 5 h, 30 µM: 0.168 ± 0.006 | fraction unbound at 5 h, 100 µM: 0.179 ± 0.009
